# Data published in PubChem BioAssay (NCI).
#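 1) Cells in 96-well plates. 2) Compound, 48 h, 5 concentrations. 3) Linear interpolation between surrounding doses. 4) Unreached endpoint = highest concentration. The concentration for full growth arrest is given as TGI.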
# Tests used:
# Assay in all cases: NCI anticancer screen, dose series, 48 h
# OVCAR-8 ovarian = tested on: OVCAR-8 ovarian
# SK-MEL-5 melanoma = tested on: SK-MEL-5 melanoma
# HCT-116 colon = tested on: HCT-116 colon
# SK-MEL-28 melanoma = tested on: SK-MEL-28 melanoma
# SN12C renal = tested on: SN12C renal
# CCRF-CEM leukemia = tested on: CCRF-CEM leukemia
# TK-10 renal = tested on: TK-10 renal
# PC-3 prostate = tested on: PC-3 prostate
# NCI-H460 lung = tested on: NCI-H460 lung
# OVCAR-5 ovarian = tested on: OVCAR-5 ovarian
# MOLT-4 leukemia = tested on: MOLT-4 leukemia
# BT-549 breast = tested on: BT-549 breast
# MDA-MB-435 = tested on: MDA-MB-435
# HOP-92 NSCLC = tested on: HOP-92 NSCLC
# SK-MEL-2 melanoma = tested on: SK-MEL-2 melanoma
# OVCAR-4 ovarian = tested on: OVCAR-4 ovarian
# SW-620 colon = tested on: SW-620 colon
# HCC-2998 colon = tested on: HCC-2998 colon
# OVCAR-3 ovarian = tested on: OVCAR-3 ovarian
# EKVX NSCLC = tested on: EKVX NSCLC
# NCI-H23 lung = tested on: NCI-H23 lung
# NCI-H522 lung = tested on: NCI-H522 lung
# IGROV1 ovarian = tested on: IGROV1 ovarian
# SF-295 CNS = tested on: SF-295 CNS
# ACHN renal = tested on: ACHN renal
# HOP-62 NSCLC = tested on: HOP-62 NSCLC
# RXF 393 renal = tested on: RXF 393 renal
# DU-145 prostate = tested on: DU-145 prostate
# MDA-MB-231 breast = tested on: MDA-MB-231 breast
# A549 NSCLC = tested on: A549 NSCLC
# 786-0 renal = tested on: 786-0 renal
# SF-268 CNS = tested on: SF-268 CNS
# NCI-H226 lung = tested on: NCI-H226 lung
# SNB-19 CNS = tested on: SNB-19 CNS
# A498 renal = tested on: A498 renal
# CAKI-1 renal = tested on: CAKI-1 renal
# UACC-62 melanoma = tested on: UACC-62 melanoma
# HL-60(TB) leukemia = tested on: HL-60(TB) leukemia
# SNB-75 CNS = tested on: SNB-75 CNS
# SK-OV-3 ovarian = tested on: SK-OV-3 ovarian
# T-47D breast = tested on: T-47D breast
# KM12 colon = tested on: KM12 colon
# M14 melanoma = tested on: M14 melanoma
# U251 CNS = tested on: U251 CNS
# NCI/ADR-RES ovarian = tested on: NCI/ADR-RES ovarian
# MDA-N = tested on: MDA-N
# HCT-15 colon = tested on: HCT-15 colon
# RPMI-8226 leukemia = tested on: RPMI-8226 leukemia
# MALME-3M melanoma = tested on: MALME-3M melanoma
# COLO 205 colon = tested on: COLO 205 colon
# MCF7 breast = tested on: MCF7 breast
# UO-31 renal = tested on: UO-31 renal
# HS 578T breast = tested on: HS 578T breast
# HT29 colon = tested on: HT29 colon
# UACC-257 melanoma = tested on: UACC-257 melanoma
# K-562 leukemia = tested on: K-562 leukemia
# SF-539 CNS = tested on: SF-539 CNS
# LOX IMVI melanoma = tested on: LOX IMVI melanoma
compound,measurement,setting,value
CN(C)c1ccc(/C=C2\N=C(N/N=C/c3ccc(N(C)C)cc3)NC2=O)cc1,TGI,OVCAR-8 ovarian,72.7 µM
same,TGI,SK-MEL-5 melanoma,> 100 µM
same,TGI,HCT-116 colon,> 100 µM
same,TGI,SK-MEL-28 melanoma,> 100 µM
same,TGI,SN12C renal,> 100 µM
same,TGI,CCRF-CEM leukemia,> 100 µM
same,TGI,TK-10 renal,> 100 µM
same,TGI,PC-3 prostate,> 100 µM
same,TGI,NCI-H460 lung,> 100 µM
same,TGI,OVCAR-5 ovarian,> 100 µM
same,TGI,MOLT-4 leukemia,> 100 µM
same,TGI,BT-549 breast,> 100 µM
same,TGI,MDA-MB-435,> 100 µM
same,TGI,HOP-92 NSCLC,98.4 µM
same,TGI,SK-MEL-2 melanoma,> 100 µM
same,TGI,OVCAR-4 ovarian,> 100 µM
same,TGI,SW-620 colon,> 100 µM
same,TGI,HCC-2998 colon,> 100 µM
same,TGI,OVCAR-3 ovarian,> 100 µM
same,TGI,EKVX NSCLC,> 100 µM
same,TGI,NCI-H23 lung,> 100 µM
same,TGI,NCI-H522 lung,> 100 µM
same,TGI,IGROV1 ovarian,> 100 µM
same,TGI,SF-295 CNS,> 100 µM
same,TGI,ACHN renal,> 100 µM
same,TGI,HOP-62 NSCLC,> 100 µM
same,TGI,RXF 393 renal,53.8 µM
same,TGI,DU-145 prostate,96 µM
same,TGI,MDA-MB-231 breast,> 100 µM
same,TGI,A549 NSCLC,> 100 µM
same,TGI,786-0 renal,> 100 µM
same,TGI,SF-268 CNS,> 100 µM
same,TGI,NCI-H226 lung,> 100 µM
same,TGI,SNB-19 CNS,> 100 µM
same,TGI,A498 renal,> 100 µM
same,TGI,CAKI-1 renal,> 100 µM
same,TGI,UACC-62 melanoma,> 100 µM
same,TGI,HL-60(TB) leukemia,> 100 µM
same,TGI,SNB-75 CNS,> 100 µM
same,TGI,SK-OV-3 ovarian,> 100 µM
same,TGI,T-47D breast,> 100 µM
same,TGI,KM12 colon,> 100 µM
same,TGI,M14 melanoma,> 100 µM
same,TGI,U251 CNS,> 100 µM
same,TGI,NCI/ADR-RES ovarian,> 100 µM
same,TGI,MDA-N,> 100 µM
same,TGI,HCT-15 colon,> 100 µM
same,TGI,RPMI-8226 leukemia,> 100 µM
same,TGI,MALME-3M melanoma,> 100 µM
same,TGI,COLO 205 colon,> 100 µM
same,TGI,MCF7 breast,> 100 µM
same,TGI,UO-31 renal,> 100 µM
same,TGI,HS 578T breast,> 100 µM
same,TGI,HT29 colon,> 100 µM
same,TGI,UACC-257 melanoma,> 100 µM
CCOC(=O)C(C)(C)Oc1ccc(Cl)cc1,TGI,OVCAR-8 ovarian,> 1000 µM
same,TGI,SK-MEL-5 melanoma,294 µM
same,TGI,HCT-116 colon,> 1000 µM
same,TGI,SK-MEL-28 melanoma,> 1000 µM
same,TGI,SN12C renal,> 1000 µM
same,TGI,CCRF-CEM leukemia,> 1000 µM
same,TGI,TK-10 renal,> 1000 µM
same,TGI,PC-3 prostate,> 1000 µM
same,TGI,NCI-H460 lung,> 1000 µM
same,TGI,OVCAR-5 ovarian,> 1000 µM
same,TGI,MOLT-4 leukemia,591 µM
same,TGI,BT-549 breast,> 1000 µM
same,TGI,MDA-MB-435,> 1000 µM
same,TGI,HOP-92 NSCLC,650 µM
same,TGI,SK-MEL-2 melanoma,392 µM
same,TGI,OVCAR-4 ovarian,> 1000 µM
same,TGI,SW-620 colon,> 1000 µM
same,TGI,HCC-2998 colon,> 1000 µM
same,TGI,EKVX NSCLC,> 1000 µM
same,TGI,NCI-H23 lung,> 1000 µM
same,TGI,NCI-H522 lung,> 1000 µM
same,TGI,IGROV1 ovarian,> 1000 µM
same,TGI,SF-295 CNS,> 1000 µM
same,TGI,ACHN renal,> 1000 µM
same,TGI,HOP-62 NSCLC,> 1000 µM
same,TGI,RXF 393 renal,433 µM
same,TGI,K-562 leukemia,> 1000 µM
same,TGI,DU-145 prostate,> 1000 µM
same,TGI,MDA-MB-231 breast,> 1000 µM
same,TGI,A549 NSCLC,> 1000 µM
same,TGI,786-0 renal,> 1000 µM
same,TGI,SF-268 CNS,> 1000 µM
same,TGI,NCI-H226 lung,429 µM
same,TGI,SNB-19 CNS,> 1000 µM
same,TGI,A498 renal,> 1000 µM
same,TGI,CAKI-1 renal,> 1000 µM
same,TGI,UACC-62 melanoma,> 1000 µM
same,TGI,HL-60(TB) leukemia,> 1000 µM
same,TGI,SNB-75 CNS,> 1000 µM
same,TGI,SK-OV-3 ovarian,> 1000 µM
same,TGI,T-47D breast,682 µM
same,TGI,KM12 colon,> 1000 µM
same,TGI,M14 melanoma,> 1000 µM
same,TGI,U251 CNS,> 1000 µM
same,TGI,NCI/ADR-RES ovarian,> 1000 µM
same,TGI,SF-539 CNS,> 1000 µM
same,TGI,MDA-N,> 1000 µM
same,TGI,HCT-15 colon,> 1000 µM
same,TGI,MALME-3M melanoma,> 1000 µM
same,TGI,LOX IMVI melanoma,329 µM
same,TGI,COLO 205 colon,459 µM
same,TGI,MCF7 breast,> 1000 µM
same,TGI,UO-31 renal,> 1000 µM
same,TGI,HS 578T breast,> 1000 µM
same,TGI,HT29 colon,325 µM
same,TGI,UACC-257 melanoma,496 µM
Cc1ccc2c3c4c(ccc13)C(C)(C)OC4=C(C(C)C)C2=O,TGI,OVCAR-8 ovarian,> 100 µM
same,TGI,SK-MEL-5 melanoma,> 100 µM
same,TGI,HCT-116 colon,> 100 µM
same,TGI,SK-MEL-28 melanoma,> 100 µM
same,TGI,SN12C renal,> 100 µM
same,TGI,CCRF-CEM leukemia,> 100 µM
same,TGI,TK-10 renal,> 100 µM
same,TGI,PC-3 prostate,27.6 µM
same,TGI,NCI-H460 lung,> 100 µM
same,TGI,OVCAR-5 ovarian,> 100 µM
same,TGI,MOLT-4 leukemia,> 100 µM
same,TGI,BT-549 breast,> 100 µM
same,TGI,MDA-MB-435,> 100 µM
same,TGI,HOP-92 NSCLC,> 100 µM
same,TGI,SK-MEL-2 melanoma,30.7 µM
same,TGI,OVCAR-4 ovarian,> 100 µM
same,TGI,SW-620 colon,> 100 µM
same,TGI,HCC-2998 colon,> 100 µM
same,TGI,OVCAR-3 ovarian,26.8 µM
same,TGI,EKVX NSCLC,> 100 µM
same,TGI,NCI-H23 lung,> 100 µM
same,TGI,NCI-H522 lung,> 100 µM
same,TGI,IGROV1 ovarian,> 100 µM
same,TGI,SF-295 CNS,> 100 µM
same,TGI,ACHN renal,> 100 µM
same,TGI,HOP-62 NSCLC,29 µM
same,TGI,RXF 393 renal,> 100 µM
same,TGI,K-562 leukemia,> 100 µM
same,TGI,DU-145 prostate,> 100 µM
same,TGI,MDA-MB-231 breast,> 100 µM
same,TGI,A549 NSCLC,> 100 µM
same,TGI,786-0 renal,> 100 µM
same,TGI,SF-268 CNS,> 100 µM
same,TGI,NCI-H226 lung,27.9 µM
same,TGI,SNB-19 CNS,> 100 µM
same,TGI,A498 renal,> 100 µM
same,TGI,CAKI-1 renal,> 100 µM
same,TGI,UACC-62 melanoma,> 100 µM
same,TGI,HL-60(TB) leukemia,> 100 µM
same,TGI,SNB-75 CNS,> 100 µM
same,TGI,SK-OV-3 ovarian,> 100 µM
same,TGI,T-47D breast,> 100 µM
same,TGI,KM12 colon,> 100 µM
same,TGI,M14 melanoma,> 100 µM
same,TGI,U251 CNS,> 100 µM
same,TGI,NCI/ADR-RES ovarian,> 100 µM
same,TGI,SF-539 CNS,> 100 µM
same,TGI,MDA-N,> 100 µM
same,TGI,HCT-15 colon,> 100 µM
same,TGI,RPMI-8226 leukemia,> 100 µM
same,TGI,MALME-3M melanoma,> 100 µM
same,TGI,COLO 205 colon,> 100 µM
same,TGI,MCF7 breast,> 100 µM
same,TGI,UO-31 renal,> 100 µM
same,TGI,HS 578T breast,55.2 µM
same,TGI,HT29 colon,39.2 µM
same,TGI,UACC-257 melanoma,> 100 µM
